Key:
[1] = system: DB; experiment: Co-treatment combination study with Cpd. No. 15, CellTiter-Glo viability, Loewe Volume; assay type: cell-based; conditions: in combination with Cpd. No. 15, seven days, DLBCL cell line DB
Procedure, shortened: (§1)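 Cells growing log-linearly are dispensed onto plates pre-loaded with Cpd. No. 15 and the partner drug, then incubated seven days in humidified 5% CO2 at 37° C. CellTiter-Glo measures ATP, and percent inhibition at each concentration comes from variable-slope four-parameter logistic curves.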

[2] = system: DOHH2; experiment: as above; assay type: cell-based; conditions: in combination with Cpd. No. 15, seven days, DLBCL cell line DOHH2
Procedure, shortened: as §1

[3] = system: GRANTA519; experiment: as above; assay type: cell-based; conditions: in combination with Cpd. No. 15, seven days, mantle cell lymphoma cell line GRANTA519 (ACC 342)
Procedure, shortened: as §1

[4] = system: HT; experiment: as above; assay type: cell-based; conditions: in combination with Cpd. No. 15, seven days, DLBCL cell line HT
Procedure, shortened: as §1

[5] = system: JEKO1; experiment: as above; assay type: cell-based; conditions: in combination with Cpd. No. 15, seven days, mantle cell lymphoma cell line JEKO1 (CRL-3006)
Procedure, shortened: as §1

[6] = system: JVM2; experiment: as above; assay type: cell-based; conditions: in combination with Cpd. No. 15, seven days, mantle cell lymphoma cell line JVM2 (CRL-3002)
Procedure, shortened: as §1

[7] = system: KARPAS422; experiment: as above; assay type: cell-based; conditions: in combination with Cpd. No. 15, seven days, DLBCL cell line KARPAS422
Procedure, shortened: as §1

[8] = system: MAVER1; experiment: as above; assay type: cell-based; conditions: in combination with Cpd. No. 15, seven days, mantle cell lymphoma cell line MAVER1 (CRL-3008)
Procedure, shortened: as §1

[9] = system: MINO; experiment: as above; assay type: cell-based; conditions: in combination with Cpd. No. 15, seven days, mantle cell lymphoma cell line MINO (CRL-3000)
Procedure, shortened: as §1

[10] = system: Pfeiffer; experiment: as above; assay type: cell-based; conditions: in combination with Cpd. No. 15, seven days, DLBCL cell line Pfeiffer
Procedure, shortened: as §1

[11] = system: REC1; experiment: as above; assay type: cell-based; conditions: in combination with Cpd. No. 15, seven days, mantle cell lymphoma cell line REC1 (CRL-3004)
Procedure, shortened: as §1

[12] = system: RL; experiment: as above; assay type: cell-based; conditions: in combination with Cpd. No. 15; 6-Day Cotreatment; DLBCL cell line RL
[13] = system: SUDHL10; experiment: as above; assay type: cell-based; conditions: in combination with Cpd. No. 15; 5-Day Cotreatment; DLBCL cell line SUDHL10
[14] = system: SUDHL2; experiment: as above; assay type: cell-based; conditions: in combination with Cpd. No. 15, seven days, DLBCL cell line SUDHL2
Procedure, shortened: as §1

[15] = system: SUDHL4; experiment: as above; assay type: cell-based; conditions: in combination with Cpd. No. 15, seven days, DLBCL cell line SUDHL4
Procedure, shortened: as §1

[16] = system: SUDHL5; experiment: as above; assay type: cell-based; conditions: in combination with Cpd. No. 15, seven days, DLBCL cell line SUDHL5
Procedure, shortened: as §1

[17] = system: SUDHL6; experiment: as above; assay type: cell-based; conditions: in combination with Cpd. No. 15, seven days, DLBCL cell line SUDHL6
Procedure, shortened: as §1

[18] = system: SUDHL8; experiment: as above; assay type: cell-based; conditions: in combination with Cpd. No. 15, seven days, DLBCL cell line SUDHL8
Procedure, shortened: as §1

[19] = system: TOLEDO; experiment: as above; assay type: cell-based; conditions: in combination with Cpd. No. 15, seven days, DLBCL cell line TOLEDO
Procedure, shortened: as §1

[20] = system: WILL2; experiment: as above; assay type: cell-based; conditions: in combination with Cpd. No. 15, seven days, DLBCL cell line WILL2
Procedure, shortened: as §1

[21] = system: WSUDLCL2; experiment: as above; assay type: cell-based; conditions: in combination with Cpd. No. 15, seven days, DLBCL cell line WSUDLCL2
Procedure, shortened: as §1

[22] = system: WSUNHL; experiment: as above; assay type: cell-based; conditions: in combination with Cpd. No. 15, seven days, DLBCL cell line WSUNHL
Procedure, shortened: as §1

[23] = system: Z138; experiment: as above; assay type: cell-based; conditions: in combination with Cpd. No. 15, seven days, mantle cell lymphoma cell line Z138 (CRL-3001)
Procedure, shortened: as §1

[24] = system: diffuse large B-cell lymphoma (DLBCL) cell lines; experiment: Co-treatment combination study with Cpd. No. 15, further cell lines (Table F), CellTiter-Glo viability, Loewe Volume; assay type: cell-based; conditions: for Combination effect with Cpd. No. 15 (Loewe Volume class), Ri1: co-treatment with Cpd. No. 15, cell line Ri1 (Cat. No. 96090512-1VL); for Combination effect with Cpd. No. 15 (Loewe Volume class), TMD8: co-treatment with Cpd. No. 15, cell line TMD8 (Cat. No. M-097); for Combination effect with Cpd. No. 15 (Loewe Volume class), WILL1: co-treatment with Cpd. No. 15, cell line WILL1 (Cat. No. ACC 651)
Description: Mantle cell lymphoma (MCL) and diffuse large B-cell lymphoma (DLBCL) cell line cultures in log-linear growth rate were treated with combinations of Cpd. No. 15 and combination partners according to a co-treatment model. […] No. 15 and the combination partner. […] Each combination was tested in quadruplicate wells. The final concentration of DMSO (vehicle) in the assay was 0.1% v/v. Fifty microliters of cell line suspension were directly dispensed to the assay-ready plates with an automated multichannel dispenser on to 384-well assay-ready plates. Assay plates were incubated for seven days unless otherwise indicated in a humidified atmosphere of 5% CO2 at 37° C. Quantification of the effect of single agents or combinations on cell viability was performed through measurement of cellular adenosine triphosphate (ATP) using a CellTiter-Glo® (Promega, Madison, WI) Luminescent Cell Viability Assay. Luminescence was detected using a SpectraMax M5 microplate reader (Molecular Devices, Sunnyvale, CA). Concentration response plots were generated in GraphPad Prism version 7.0 for Windows, GraphPad Software, (La Jolla, California) and curves fitted to a four-parameter logistic model with variable slope. Percent of inhibition was calculated at each treatment concentration.

[25] = system: diffuse large B-cell lymphoma (DLBCL) cell lines; experiment: Pre-treatment model combination study with Cpd. No. 15 (7 days pre-treatment, then combination; Table G), CellTiter-Glo viability, Loewe Volume; conditions: 7 days pre-treatment with Cpd. No. 15, then combination; for Combination effect with Cpd. No. 15 (Loewe Volume class), Farage: cell line Farage (Cat. No. CRL-2630); for Combination effect with Cpd. No. 15 (Loewe Volume class), HT: cell line HT (Cat. No. CRL-2631); for Combination effect with Cpd. No. 15 (Loewe Volume class), OCILY7: cell line OCILY7 (Cat. No. ACC 688); for Combination effect with Cpd. No. 15 (Loewe Volume class), SUDHL4: cell line SUDHL4 (Cat. No. ACC 495)

CC#CC(=O)N1CCC[C@H]1c1nc(-c2ccc(C(=O)Nc3ccccn3)cc2)c2c(N)nccn12 [Acalabrutinib, acalabrutinib]
Combination effect (Loewe Volume) DB [1]: No Effect
Combination effect (Loewe Volume) DOHH2 [2]: No Effect
Combination effect (Loewe Volume) GRANTA519 [3]: Additivity (between 1 and −1: additivity)
Combination effect (Loewe Volume) HT [4]: No Effect
Combination effect (Loewe Volume) JEKO1 [5]: Synergy (VLoewe>1: synergy)
Combination effect (Loewe Volume) JVM2 [6]: Additivity (between 1 and −1: additivity)
Combination effect (Loewe Volume) KARPAS422 [7]: No Effect
Combination effect (Loewe Volume) MAVER1 [8]: Synergy (VLoewe>1: synergy)
Combination effect (Loewe Volume) MINO [9]: Synergy (VLoewe>1: synergy)
Combination effect (Loewe Volume) Pfeiffer [10]: No Effect
Combination effect (Loewe Volume) REC1 [11]: Additivity (between 1 and −1: additivity)
Combination effect (Loewe Volume) RL [12]: No Effect
Combination effect (Loewe Volume) SUDHL10 [13]: No Effect
Combination effect (Loewe Volume) SUDHL2 [14]: No Effect
Combination effect (Loewe Volume) SUDHL4 [15]: No Effect
Combination effect (Loewe Volume) SUDHL5 [16]: No Effect
Combination effect (Loewe Volume) SUDHL6 [17]: Synergy (VLoewe>1: synergy)
Combination effect (Loewe Volume) SUDHL8 [18]: No Effect
Combination effect (Loewe Volume) TOLEDO [19]: No Effect
Combination effect (Loewe Volume) WILL2 [20]: Additivity (between 1 and −1: additivity)
Combination effect (Loewe Volume) WSUDLCL2 [21]: Additivity (between 1 and −1: additivity)
Combination effect (Loewe Volume) WSUNHL [22]: No Effect
Combination effect (Loewe Volume) Z138 [23]: No Effect
Combination effect with Cpd. No. 15 (Loewe Volume class), Ri1 [24]: Synergy (VLoewe>1: synergy)
Combination effect with Cpd. No. 15 (Loewe Volume class), TMD8 [24]: Synergy (VLoewe>1: synergy)
Combination effect with Cpd. No. 15 (Loewe Volume class), WILL1 [24]: No Effect
Combination effect with Cpd. No. 15 (Loewe Volume class), Farage [25]: Synergy (VLoewe>1: synergy)
Combination effect with Cpd. No. 15 (Loewe Volume class), HT [25]: No Effect
Combination effect with Cpd. No. 15 (Loewe Volume class), OCILY7 [25]: No Effect
Combination effect with Cpd. No. 15 (Loewe Volume class), SUDHL4 [25]: No Effect
Combination effect with Cpd. No. 15 (Loewe Volume class), WILL2 ([25]; cell line WILL2 (Cat. No. ACC 652)): No Effect

C=CC(=O)N1CCC([C@@H]2CCNc3c(C(N)=O)c(-c4ccc(Oc5ccccc5)cc4)nn32)CC1 [Zanubrutinib, zanubrutinib]
Combination effect (Loewe Volume) DB [1]: No Effect
Combination effect (Loewe Volume) DOHH2 [2]: Synergy (VLoewe>1: synergy)
Combination effect (Loewe Volume) GRANTA519 [3]: Additivity (between 1 and −1: additivity)
Combination effect (Loewe Volume) HT [4]: No Effect
Combination effect (Loewe Volume) JEKO1 [5]: Synergy (VLoewe>1: synergy)
Combination effect (Loewe Volume) JVM2 [6]: Additivity (between 1 and −1: additivity)
Combination effect (Loewe Volume) KARPAS422 [7]: No Effect
Combination effect (Loewe Volume) MAVER1 [8]: Synergy (VLoewe>1: synergy)
Combination effect (Loewe Volume) MINO [9]: Synergy (VLoewe>1: synergy)
Combination effect (Loewe Volume) Pfeiffer [10]: No Effect
Combination effect (Loewe Volume) REC1 [11]: Additivity (between 1 and −1: additivity)
Combination effect (Loewe Volume) RL [12]: No Effect
Combination effect (Loewe Volume) SUDHL10 [13]: No Effect
Combination effect (Loewe Volume) SUDHL2 [14]: No Effect
Combination effect (Loewe Volume) SUDHL4 [15]: Synergy (VLoewe>1: synergy)
Combination effect (Loewe Volume) SUDHL5 [16]: No Effect
Combination effect (Loewe Volume) SUDHL6 [17]: Synergy (VLoewe>1: synergy)
Combination effect (Loewe Volume) SUDHL8 [18]: No Effect
Combination effect (Loewe Volume) TOLEDO [19]: Additivity (between 1 and −1: additivity)
Combination effect (Loewe Volume) WILL2 [20]: Additivity (between 1 and −1: additivity)
Combination effect (Loewe Volume) WSUDLCL2 [21]: Additivity (between 1 and −1: additivity)
Combination effect (Loewe Volume) WSUNHL [22]: Additivity (between 1 and −1: additivity)
Combination effect (Loewe Volume) Z138 [23]: No Effect
Combination effect with Cpd. No. 15 (Loewe Volume class), Ri1 [24]: Synergy (VLoewe>1: synergy)
Combination effect with Cpd. No. 15 (Loewe Volume class), TMD8 [24]: Synergy (VLoewe>1: synergy)
Combination effect with Cpd. No. 15 (Loewe Volume class), WILL1 [24]: No Effect
Combination effect with Cpd. No. 15 (Loewe Volume class), Farage [25]: Synergy (VLoewe>1: synergy)
Combination effect with Cpd. No. 15 (Loewe Volume class), HT [25]: Synergy (VLoewe>1: synergy)
Combination effect with Cpd. No. 15 (Loewe Volume class), OCILY7 [25]: Synergy (VLoewe>1: synergy)
Combination effect with Cpd. No. 15 (Loewe Volume class), SUDHL4 [25]: Synergy (VLoewe>1: synergy)
